Data set [1] deals with T1, tmCBP (Thermotoga maritima cellobiose-binding protein) (Thermotoga maritima, UniProt Q9WXN8).
T1 construct: gene TM_0031; recombinant, E. coli BL21-RIL, nickel chelation purification (tagged); 582 residues modelled; ligand-free protein from Enfor's minimal medium
The experiment in a line: CD thermal denaturation at […] nm. As to conditions: Tm without ligand 94.8 °C; 1 mM ligand, 0.5 μM protein, 2 M guanidine hydrochloride, 10 mM Tris-HCl pH 8.0, 40 mM NaCl.

Data set [2] addresses T1, tmCBP (Thermotoga maritima cellobiose-binding protein). The data set is described as follows: small-angle neutron scattering, ligand-induced closure. As to conditions: 5 mM ligand, 20 mM Tris pH 8.0, 40 mM NaCl, D2O, 20 °C.
Data set [3] concerns the molecule itself. The data set is described as follows: small-angle neutron scattering (SANS); tmCBP at 4.2-16.7 mg/mL in 20 mM Tris pH 8.0, 40 mM NaCl, 100% D2O, 20°C; molecular mass from the intensity at zero scattering angle; apo protein, and with 5 mM cellobiose added (associations then alleviated).

A word on the Tm: it is the temperature at which the thermal transition is half complete. As for `OC[C@H]1O[C@@H](O[C@H]2[C@H](O)[C@@H](CO)OC(O)[C@@H]2O)[C@H](O)[C@@H](O)[C@@H]1O` (stereo partly shown) [LR2, laminaribiose], the Tm in data set [1] is 99.2 °C.
`OC[C@H]1O[C@@H](O[C@H]2[C@H](O)[C@@H](O)C(O)O[C@@H]2CO)[C@H](O)[C@@H](O)[C@@H]1O` (stereo partly shown) [cellobiose]: the “small-angle neutron scattering, ligand-induced closure” value in data set [2] is listed as “Upon addition of ligand the protein undergoes large scale conformational changes”.
For `OC[C@H]1O[C@@H](O[C@@H]2[C@@H](O)[C@H](O[C@@H]3[C@@H](O)[C@H](O[C@@H]4[C@@H](O)[C@H](O[C@H]5[C@H](O)[C@@H](CO)OC(O)[C@@H]5O)O[C@H](CO)[C@H]4O)O[C@H](CO)[C@H]3O)O[C@H](CO)[C@H]2O)[C@H](O)[C@@H](O)[C@@H]1O` (stereo partly shown) [LR5, laminaripentaose], the Tm in data set [1] is 105.2 °C.

B1: Thermotoga maritima cellobiose binding protein (natural protein)
chain: QVSLPREDTVYIGGALWGPATTWNLYAPQSTWGTDQFMYLPAFQYDLGRDAWIPVIAERYEFVDDKTLRIYIRPEARWSDGVPITADDFVYALELTKELGIGPGGGWDTYIEYVKAVDTKVVEFKAKEENLNYFQFLSYSLGAQPMPKHVYERIRAQMNIKDWINDKPEEQVVSGPYKLYYYDPNIVVYQRVDDWWGKDIFGLPRPKYLAHVIYKDNPSASLAFERGDIDWNGLFIPSVWELWEKKGLPVGTWYKKEPYFIPDGVGFVYVNNTKPGLSDPAVRKAIAYAIPYNEMLKKAYFGYGSQAHPSMVIDLFEPYKQYIDYELAKKTFGTEDGRIPFDLDMANKILDEAGYKKGPDGVRVGPDGTKLGPYTISVPYGWTDWMMMCEMIAKNLRSIGIDVKTEFPDFSVWADRMTKGTFDLIISWSVGPSFDHPFNIYRFVLDKRLSKPVGEVTWAGDWERYDNDEVVELLDKAVSTLDPEVRKQAYFRIQQIIYRDMPSIPAFYTAHWYEYSTKYWINWPSEDNPAWFRPSPWHADAWPTLFIISKKSDPQPVPSWLGTVDEGGIEIPTAKIFEDLQKATM
notes: final crystal models hold 582 amino acids; expected mass 68.7 kDa; the apo (ligand-free) form was used for the SANS measurement of self-association; also called tmCBP
As for B1, the binding result in data set [3] is on record as “binds”.

The values are drawn from article PMC3850815, “Molecular details of ligand selectivity determinants in a promiscuous β-glucan periplasmic binding protein” (BMC Structural Biology, 2013).
